Where two headings read alike, the source gives them in different places.
Assays:
Alternaria alternate = test: in vitro-Test with fungal microorganisms, Method A (tables A1-A12); format: cell-based, Alternaria alternata; settings: Alternaria, applied alone, read-out: Efficacy %
Procedure, shortened: (§1)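 Growth inhibition was measured photometrically at 620 nm 3–5 days after application, with 100% efficacy meaning no growth and 0% meaning growth equal to the untreated control. Fungal spore or mycelium suspension in potato dextrose broth was added onto solvent-evaporated compound and incubated at 20° C and 85% relative humidity.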

Botrytis cinerea = test: in vitro-Test with fungal microorganisms, Method A (tables B1-B14); format: cell-based; settings: Botrytis cinerea
Procedure, shortened: as §1

Cercospora beticola [1] = test: in vitro-Test with fungal microorganisms, Method A (tables C1-C10); format: cell-based; settings: Cercospora beticola, read-out: Efficacy %
Procedure, shortened: as §1

Cercospora beticola [2] = test: in vitro-Test with fungal microorganisms, Method B (tables C11-C20); format: cell-based; settings: Cercospora beticola, single compound, read-out: Efficacy %
Procedure, shortened: (§2)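 Steps: solvent evaporation leaves the compound coating the wells; fungus-inoculated liquid growth medium goes on top; absorbance at 600 nm is measured; incubation runs 3 to 7 days at 20° C. with 85% relative humidity. Inhibition is then read photometrically and expressed as efficacy against untreated control.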

[3] = tested on: Colletotrichum lindemuthianum; test: in vitro-Test with fungal microorganisms, Method A (tables D1-D8); format: cell-based; settings: Colletotrichum lindemuthianum, read-out: Efficacy %
Procedure, shortened: as §1

Cordana musae [4] = test: in vitro-Test with fungal microorganisms, Method A (tables E1-E8); format: cell-based
Procedure, shortened: as §1

Cordana musae [5] = test: in vitro-Test with fungal microorganisms, Method B (tables E9-E16); format: cell-based; settings: Neocordana musae, single active, read-out: Efficacy
Procedure, shortened: as §2

Diaporthe citri = test: in vitro-Test with fungal microorganisms, Method A (tables F1-F11); format: cell-based; settings: Diaporthe citri, read-out: Efficacy
Procedure, shortened: as §1

Fusarium culmorum [6] = test: in vitro-Test with fungal microorganisms, Method A (tables G1-G4); format: cell-based; settings: Fusarium culmorum, alone, read-out: Efficacy
Protocol: (§3) Example: In Vitro-Test with Fungal Microorganisms
(§4) Wells of 96-well microtiter plates are filled with 10 μl of a preparation of test compound or compound combination in methanol+emulsifier alkylaryl-polyglycol-ether. Thereafter, the solvent is evaporated in a hood. At the next step, 100 μl of liquid potato dextrose medium is given into each well, that has been amended with an appropriate concentration of spores or mycelium suspension of the test fungus.
With the aid of a photometer, the extinction in all wells is measured at the wavelength of 620 nm.
The microtiter plates are incubated at 20° C. and 85% relative humidity. The inhibition of growth is determined again photometrically 3-5 days after the application. Efficacy is calculated in relation to the untreated control, 0% efficacy means fungal growth as high as in untreated control while 100% efficacy means no fungal growth is measured.
(§5) The data in tables A1 to A12, B1 to B14, C1 to C10, D1 to D8, E1 to E8, F1 to F11, G1 to G4, H1 to H4 and I1 to I5 were collected according to Method A. The data in tables A13 to A22, B15 to B18, C11 to C20, E9 to E16, F12 to F15, G5 to G15, H5 to H8, I6 to I11 and J1 to J11 were collected according to Method B.

Fusarium culmorum [7] = test: in vitro-Test with fungal microorganisms, Method B (tables G5-G15); format: cell-based; settings: Fusarium culmorum, read-out: Efficacy
Procedure, shortened: as §2

Parastagonospora nodorum = test: in vitro-Test with fungal microorganisms, Method B (tables H5-H8); format: cell-based; settings: Parastagonospora nodorum, read-out: Efficacy
Protocol: as §3
as §4, with “30” for “10”, “200” for “100”, “growth” for “potato dextrose”, “given,” for “given into each well,”
With the aid of a photometer, the extinction in all wells is measured at the wavelength of 600 nm.
The microtiter plates are incubated for 3 to 7 days at 20° C. and 85% relative humidity. After the incubation inhibition of growth is determined photometrically. Efficacy is calculated in relation to the untreated control, 0% efficacy means fungal growth as high as in untreated control while 100% efficacy means no fungal growth is measured.
as §5

Colletotrichum coccodes = test: in vitro-Test with fungal microorganisms, Method B (tables J1-J11); format: cell-based; settings: Colletotrichum coccodes, read-out: Efficacy %; for inhibition of growth at 1 ppm: single active compound at 1 ppm
Procedure, shortened: as §2

Alternaria alternata = test: in vitro-Test with fungal microorganisms, Method B (tables A13-A22); format: cell-based; settings: Alternaria alternata, single compound, 0.2 ppm; read-out: Efficacy
Procedure, shortened: as §2

[8] = tested on: Ustilago segetum var. avenae; test: in vitro-Test with fungal microorganisms, Method A (tables I1-I5); format: cell-based; settings: alone, 0.8 ppm; read-out: Efficacy %
Procedure, shortened: as §1

[9] = tested on: Ustilago segetum var. avenae; test: in vitro-Test with fungal microorganisms, Method B (tables I6-I11); format: cell-based; settings: 1 ppm; read-out: Efficacy %
Procedure, shortened: as §2

[10] = single active compound at 0.04 ppm

`CC(C)(C)C(O)(CCc1ccc(Cl)cc1)Cn1cncn1` (centres unmarked) [(1.021) tebuconazole, tebuconazole] was tested, and the inhibition of growth at 0.008 ppm (Alternaria alternate; 0.008 ppm) was 13%, the inhibition of growth at 0.04 ppm (Alternaria alternate; 0.04 ppm) was 19% and the inhibition of growth at 0.2 ppm (Alternaria alternate; 0.2 ppm) was 26%. For the same molecule, the inhibition of growth at 0.04 ppm (Botrytis cinerea; read-out: Efficacy) was 0%, the inhibition of growth at 0.2 ppm (Botrytis cinerea; read-out: Efficacy) was 37% and the inhibition of growth at 1 ppm (Botrytis cinerea; 1.0 ppm, read-out: Efficacy) was 94%. It also gave an inhibition of growth at 0.008 ppm (Botrytis cinerea; alone, 0.008 ppm, read-out: Efficacy %) of 0%, an inhibition of growth at 0.04 ppm (Botrytis cinerea; alone, read-out: Efficacy %) of 0% and an inhibition of growth at 0.2 ppm (Botrytis cinerea; alone, read-out: Efficacy %) of 45%. It also gave an inhibition of growth at 0.008 ppm (Cercospora beticola [1]; 0.008 ppm alone) of 12%, an inhibition of growth at 0.04 ppm (Cercospora beticola [1]; 0.04 ppm alone) of 32% and an inhibition of growth at 0.2 ppm (Cercospora beticola [1]; 0.2 ppm alone) of 100%. The inhibition of growth at 0.008 ppm (Cercospora beticola [2]; 0.008 ppm) was 4%, the inhibition of growth at 0.04 ppm (Cercospora beticola [2]) was 1% and the inhibition of growth at 0.2 ppm (Cercospora beticola [2]; 0.2 ppm) was 62%. It also gave an inhibition of growth at 0.008 ppm ([3]; mixing partner alone, 0.008 ppm) of 32%, an inhibition of growth at 0.04 ppm ([3]; mixing partner alone, 0.04 ppm) of 0% and an inhibition of growth at 0.2 ppm ([3]; mixing partner alone, 0.2 ppm) of 17%. For the same molecule, the inhibition of growth at 1 ppm ([3]; mixing partner alone, 1.0 ppm) was 35%, the inhibition of growth at 0.008 ppm ([3]; single active at 0.008 ppm) was 0% and the inhibition of growth at 0.04 ppm ([3]; single active at 0.04 ppm) was 13%. The inhibition of growth at 0.2 ppm ([3]; single active at 0.2 ppm) was 0%, the inhibition of growth at 1 ppm ([3]; single active at 1.0 ppm) was 4% and the inhibition of growth at 0.04 ppm (Cordana musae [4]; Neocordana musae, mixing partner alone, 0.04 ppm, read-out: Efficacy %) was 0%. The inhibition of growth at 0.2 ppm (Cordana musae [4]; Neocordana musae, mixing partner alone, 0.2 ppm, read-out: Efficacy %) was 29%, the Efficacy % (Cordana musae [4]; mixing partner alone, 1.0 ppm) was 99% and the inhibition of growth at 0.04 ppm (Cordana musae [5]) was 2%. The inhibition of growth at 0.2 ppm (Cordana musae [5]; 0.2 ppm) was 25%, the inhibition of growth at 1 ppm (Cordana musae [5]) was 71% and the inhibition of growth at 0.008 ppm (Diaporthe citri; applied alone, 0.008 ppm) was 28%. The inhibition of growth at 0.2 ppm (Diaporthe citri; applied alone, 0.2 ppm) was 89%, the inhibition of growth at 0.008 ppm (Fusarium culmorum [6]; 0.008 ppm) was 8% and the inhibition of growth at 0.04 ppm (Fusarium culmorum [6]; 0.04 ppm) was 21%. It also gave an inhibition of growth at 1 ppm (Fusarium culmorum [6]; 1.0 ppm) of 98%, an inhibition of growth at 1 ppm (Fusarium culmorum [7]; alone) of 79% and an inhibition of growth at 0.008 ppm (Parastagonospora nodorum; 0.008 ppm) of 0%. It also gave an inhibition of growth at 0.04 ppm (Parastagonospora nodorum) of 0%, an inhibition of growth at 0.2 ppm (Parastagonospora nodorum; 0.2 ppm) of 60% and an inhibition of growth at 1 ppm (Parastagonospora nodorum; 1 ppm) of 100%. For the same molecule, the inhibition of growth at 0.04 ppm (Colletotrichum coccodes; 0.04 ppm) was 0%, the inhibition of growth at 0.2 ppm (Colletotrichum coccodes; 0.2 ppm) was 4% and the inhibition of growth at 0.008 ppm (Colletotrichum coccodes; applied alone, 0.008 ppm) was 0%. The inhibition of growth at 0.04 ppm (Colletotrichum coccodes; applied alone, 0.04 ppm) was 0%, the inhibition of growth at 0.2 ppm (Colletotrichum coccodes; applied alone, 0.2 ppm) was 0% and the inhibition of growth at 0.008 ppm (Colletotrichum coccodes; single active compound at 0.008 ppm) was 0%. The inhibition of growth at 0.04 ppm (Colletotrichum coccodes; [10]) was 7% and the inhibition of growth at 1 ppm (Colletotrichum coccodes) was 87%.

`O=C1C2CC=CCC2C(=O)N1SC(Cl)(Cl)Cl` (centres unmarked) [(5.003) captan, captan] gave an inhibition of growth at 20 ppm (Alternaria alternate; 20 ppm) of 56%, an inhibition of growth at 0.2 ppm (Alternaria alternata) of 0% and an inhibition of growth at 0.8 ppm (Botrytis cinerea; read-out: Efficacy) of 0%. It also gave an inhibition of growth at 4 ppm (Botrytis cinerea; 4.0 ppm, read-out: Efficacy) of 0%, an inhibition of growth at 20 ppm (Botrytis cinerea; read-out: Efficacy) of 7% and an inhibition of growth at 0.8 ppm (Botrytis cinerea; alone, read-out: Efficacy %) of 0%. The inhibition of growth at 20 ppm (Botrytis cinerea; alone, read-out: Efficacy %) was 100%, the inhibition of growth at 0.8 ppm (Cercospora beticola [1]; 0.8 ppm alone) was 0% and the inhibition of growth at 0.8 ppm (Cercospora beticola [1]; 0.8 ppm) was 0%. It also gave an inhibition of growth at 4 ppm (Cercospora beticola [1]; 4.0 ppm) of 100%, an inhibition of growth at 20 ppm (Cercospora beticola [1]; 20.0 ppm) of 100% and an inhibition of growth at 0.04 ppm (Cercospora beticola [2]) of 0%. The inhibition of growth at 0.4 ppm (Cercospora beticola [2]; 0.4 ppm) was 0%, the inhibition of growth at 5 ppm (Cercospora beticola [2]; 5 ppm) was 100% and the inhibition of growth at 0.8 ppm ([3]; mixing partner alone, 0.8 ppm) was 3%. It also gave an inhibition of growth at 4 ppm ([3]; mixing partner alone, 4.0 ppm) of 100%, an inhibition of growth at 20 ppm ([3]; mixing partner alone, 20.0 ppm) of 100% and an inhibition of growth at 0.8 ppm ([3]; single active at 0.8 ppm) of 0%. It also gave an inhibition of growth at 4 ppm ([3]; single active at 4.0 ppm) of 100%, an inhibition of growth at 20 ppm ([3]; single active at 20.0 ppm) of 100% and an inhibition of growth at 4 ppm (Cordana musae [4]; Neocordana musae, mixing partner alone, read-out: Efficacy %) of 0%. For the same molecule, the inhibition of growth at 4 ppm (Cordana musae [4]; Neocordana musae, single substance, read-out: Efficacy %) was 100%, the inhibition of growth at 20 ppm (Cordana musae [4]; Neocordana musae, single substance, 20.0 ppm, read-out: Efficacy %) was 100% and the inhibition of growth at 0.04 ppm (Cordana musae [5]) was 0%. For the same molecule, the inhibition of growth at 1 ppm (Cordana musae [5]) was 0%, the inhibition of growth at 5 ppm (Cordana musae [5]; 5 ppm) was 100% and the inhibition of growth at 0.8 ppm (Diaporthe citri; Table F10, 0.8 ppm alone) was 18%. It also gave an inhibition of growth at 4 ppm (Diaporthe citri; Table F10, 4.0 ppm alone) of 100%, an inhibition of growth at 20 ppm (Diaporthe citri; Table F10, 20.0 ppm alone) of 100% and an inhibition of growth at 0.8 ppm (Diaporthe citri; applied alone, 0.8 ppm) of 9%. The inhibition of growth at 4 ppm (Diaporthe citri; applied alone, 4.0 ppm) was 99%, the inhibition of growth at 0.8 ppm (Diaporthe citri; single active, 0.8 ppm) was 24% and the inhibition of growth at 4 ppm (Diaporthe citri; single active, 4.0 ppm) was 88%. The inhibition of growth at 0.8 ppm (Fusarium culmorum [6]; 0.8 ppm) was 0%, the inhibition of growth at 4 ppm (Fusarium culmorum [6]; 4.0 ppm) was 100% and the inhibition of growth at 20 ppm (Fusarium culmorum [6]; 20.0 ppm) was 100%. For the same molecule, the inhibition of growth at 0.04 ppm (Fusarium culmorum [7]; single active compound, 0.04 ppm) was 0%, the inhibition of growth at 0.2 ppm (Fusarium culmorum [7]; single active compound, 0.2 ppm) was 16% and the inhibition of growth at 1 ppm (Fusarium culmorum [7]; single active compound) was 18%. For the same molecule, the inhibition of growth at 5 ppm (Fusarium culmorum [7]; single active compound, 5 ppm) was 100%, the inhibition of growth at 0.04 ppm (Parastagonospora nodorum) was 0% and the inhibition of growth at 0.8 ppm [8] was 0%. For the same molecule, the inhibition of growth at 1 ppm [9] was 28%, the inhibition of growth at 0.2 ppm (Colletotrichum coccodes; 0.2 ppm) was 0% and the inhibition of growth at 0.04 ppm (Colletotrichum coccodes; [10]) was 53%. The inhibition of growth at 0.2 ppm (Colletotrichum coccodes; single active compound at 0.2 ppm) was 0%, the inhibition of growth at 1 ppm (Colletotrichum coccodes) was 0% and the inhibition of growth at 5 ppm (Colletotrichum coccodes; single active compound at 5 ppm) was 100%.

From patent US12653191B2, “Active compound combinations” (Bayer Aktiengesellschaft, priority 2020, dated 2026)
